Read-outs that look alike come from different tables or passages of the source.
Target: T1, F508delCFTR (Homo sapiens, UniProt P13569, DEL508-508)
T1 construct: expressed in transfected cells; host or cells: CFBE41o- (human lung derived epithelial cell line), doxycycline-inducible expression
Assay: Cell Surface Expression-Horse Radish Peroxidase (CSE-HRP) assay
Assay type: cell-based
Details: CFBE41o-F508delCFTR-HRP cells; for Maximum % activity (with co-corrector): with co-corrector (2 μM); for Maximum % activity (with co-corrector) / Maximum % activity (without co-corrector): normalized to on-plate positive control, highest concentration 20 μM
Description: Cell Surface Expression-Horse Radish Peroxidase (CSE-HRP) Assay
A cellular assay for measuring the F508delCFTR cell surface expression after correction with test compounds either without or with a co-corrector (2 μM of 3-[(2R,4R)-4-({[1-(2,2-difluoro-1,3-benzodioxol-5-yl)cyclopropyl]carbonyl}amino)-7-methoxy-3,4-dihydro-2H-chromen-2-yl]benzoic acid), was developed in human lung derived epithelial cell line (CFBE41o-) (Veit G et al, (2012) Mol Biol Cell. 23(21): 4188-4202). The development was achieved by expressing the F508delCFTR mutation along with a horseradish peroxidase (HRP) in the fourth exofacial loop, and then measuring the HRP activity using luminescence readout from these cells, CFBE41o-F508delCFTR-HRP, that were incubated overnight with the test corrector compounds, either without or with the co-corrector. For this primary assay, the CFBE41o-F508delCFTR-HRP cells were plated in 384-well plates (Greiner Bio-one; Cat 781080) at 4,000 cells/well along with 0.5 μg/mL doxycycline to induce the F508delCFTR-HRP expression and further incubated at 37° C., 5% CO2 for 72 hours. The test compounds were then added either without or with a co-corrector at the required concentrations and further incubated for 18-24 hours at 33° C. The highest concentration tested was 20 μM with an 8-point concentration response curve using a 3-fold dilution in both the test compound without or with the co-corrector. Three replicate plates were run to determine one EC50. All plates contained negative controls (dimethyl sulfoxide, DMSO) and positive control (2 μM of 3-[(2R,4R)-4-({[1-(2,2-difluoro-1,3-benzodioxol-5-yl)cyclopropyl]carbonyl}amino)-7-methoxy-3,4-dihydro-2H-chromen-2-yl]benzoic acid) as well as on-plate concentration response of the positive control. Post incubation, the plates were washed 5× times with Dulbecco's phosphate buffered saline (DPBS), followed by the addition of the HRP substrate, luminol (50 μL), and measuring the HRP activity using luminescence readout on EnVision® Multilabel Plate Reader (Perkin Elmer; product number 2104-0010). The raw counts from the experiment were analyzed using Accelrys® Assay Explorer v3.3.
Z′ greater than 0.5 was used as passing quality control criteria for the plates.
The Z′ is defined as: 1−[3*SDPositive Control+3*SDNegative Control/Absolute(MeanPositive Control−MeanNegative Control)] wherein “SD” is standard deviation.
The % activity measured at each of the 8 test concentrations of the test compound added either without or with a co-corrector (2 μM of 3-[(2R,4R)-4-({[1-(2,2-difluoro-1,3-benzodioxol-5-yl)cyclopropyl]carbonyl}amino)-7-methoxy-3,4-dihydro-2H-chromen-2-yl]benzoic acid) was normalized to the on-plate positive control using the following formulae: % activity(Test compound without co-corrector)=[(test compound without co-corrector response−DMSO response)/(positive control response−DMSO response)]*100 % activity(Test compound with co-corrector)=[(test compound with co-corrector response−DMSO response)/(positive control response−DMSO response)]*100
The maximum % activity achieved for the test compound either without or with a co-corrector at any tested concentration is presented in Table 1 along with the respective EC50's calculated using the following general sigmoidal curve with variable Hill slope equation (described as Model 42 in the Accelrys® Assay Explorer v3.3 software): y=(a−d)/(1+(x/c)^b)+d
General sigmoidal curve with concentration, response, top, bottom, EC50 and Hill slope. This model describes a sigmoidal curve with an adjustable baseline, a. The equation can be used to fit curves where response is either increasing or decreasing with respect to the independent variable, “x”. • “x” is a concentration of drug under test. • “y” is the response. • “a” is the maximum response, and “d” is the minimum response • “c” is the inflection point (EC50) for the curve. That is, “y” is halfway between the lower and upper asymptotes when x=c. “b” is the slope-factor or Hill coefficient. […]

[1] = test compound without co-corrector, 18-24 hours at 33° C., read-out: EC50 (without co-corrector)
[2] = with co-corrector (2 μM of 3-[(2R,4R)-4-({[1-(2,2-difluoro-1,3-benzodioxol-5-yl)cyclopropyl]carbonyl}amino)-7-methoxy-3,4-dihydro-2H-chromen-2-yl]benzoic acid), read-out: EC50 (with co-corrector)

T1 sequence (P13569 with tags, fused parts or gaps DEL508-508): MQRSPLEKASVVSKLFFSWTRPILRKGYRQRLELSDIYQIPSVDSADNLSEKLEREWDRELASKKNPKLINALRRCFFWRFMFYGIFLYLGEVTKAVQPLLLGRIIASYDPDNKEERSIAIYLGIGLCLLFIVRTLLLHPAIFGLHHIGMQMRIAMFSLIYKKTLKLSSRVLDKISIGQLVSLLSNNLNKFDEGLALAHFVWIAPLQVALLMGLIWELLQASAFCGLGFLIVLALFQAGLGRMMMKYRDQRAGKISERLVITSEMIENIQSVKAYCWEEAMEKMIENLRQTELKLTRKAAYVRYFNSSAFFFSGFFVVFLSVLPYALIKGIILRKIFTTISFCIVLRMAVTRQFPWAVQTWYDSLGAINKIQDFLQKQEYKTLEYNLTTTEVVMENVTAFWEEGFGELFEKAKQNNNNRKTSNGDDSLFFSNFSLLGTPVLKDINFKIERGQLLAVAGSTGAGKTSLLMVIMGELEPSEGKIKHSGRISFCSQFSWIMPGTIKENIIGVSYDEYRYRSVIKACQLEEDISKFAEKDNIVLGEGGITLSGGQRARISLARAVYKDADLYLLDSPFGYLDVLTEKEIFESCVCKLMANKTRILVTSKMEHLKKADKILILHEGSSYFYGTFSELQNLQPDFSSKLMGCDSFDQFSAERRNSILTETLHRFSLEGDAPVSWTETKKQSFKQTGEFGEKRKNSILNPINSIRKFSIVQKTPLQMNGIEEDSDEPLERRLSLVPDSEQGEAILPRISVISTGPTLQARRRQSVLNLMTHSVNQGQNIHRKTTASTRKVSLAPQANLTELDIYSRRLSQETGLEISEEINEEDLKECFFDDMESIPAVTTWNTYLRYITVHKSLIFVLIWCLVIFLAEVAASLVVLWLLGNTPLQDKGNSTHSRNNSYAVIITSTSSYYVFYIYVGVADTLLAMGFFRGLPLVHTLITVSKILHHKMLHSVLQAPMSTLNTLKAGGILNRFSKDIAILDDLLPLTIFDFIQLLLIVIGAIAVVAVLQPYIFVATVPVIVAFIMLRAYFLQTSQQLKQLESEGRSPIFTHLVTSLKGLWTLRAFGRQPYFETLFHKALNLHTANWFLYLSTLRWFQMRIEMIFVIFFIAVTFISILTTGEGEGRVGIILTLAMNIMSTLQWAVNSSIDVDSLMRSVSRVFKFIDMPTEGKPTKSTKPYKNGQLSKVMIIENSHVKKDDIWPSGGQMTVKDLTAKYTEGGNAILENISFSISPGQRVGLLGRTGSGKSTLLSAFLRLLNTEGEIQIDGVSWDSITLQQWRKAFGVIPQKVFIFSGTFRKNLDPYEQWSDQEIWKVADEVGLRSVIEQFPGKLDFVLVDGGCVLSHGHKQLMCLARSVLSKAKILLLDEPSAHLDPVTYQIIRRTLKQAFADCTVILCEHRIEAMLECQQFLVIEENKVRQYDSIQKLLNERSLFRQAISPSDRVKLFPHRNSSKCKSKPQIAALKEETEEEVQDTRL

SMILES | EC50 [1] [µM] | EC50 [2] [µM] | Maximum % activity (with co-corrector) | Maximum % activity (without co-corrector)
COc1ccc(C(F)(F)F)cc1COC1[C@@H](c2ccccc2)N(C(=O)C2CCCCC2)[C@@H](C(=O)O)[C@@H]1C(C)(C)C (mixture of isomers) [Example 2, rac-(2R,3S,5R)-3-tert-butyl-1-(cyclohexanecarbonyl)-4-{[2-methoxy-5-(trifluoromethyl)phenyl]methoxy}-5-phenylpyrrolidine-2-carboxylic acid] | 1 to 10 | 1 to 10 | +++ (≥350) | ++ (≥100 and <200)
COc1ccc(Cl)cc1COC1[C@@H](c2ccccc2)N(C(=O)C2CCCCC2)[C@@H](C(=O)O)[C@@H]1C(C)(C)C (mixture of isomers) [Example 3, rac-(2R,3S,5R)-3-tert-butyl-4-[(5-chloro-2-methoxyphenyl)methoxy]-1-(cyclohexanecarbonyl)-5-phenylpyrrolidine-2-carboxylic acid] | 1 to 10 | 1 to 10 | +++ (≥350) | ++ (≥100 and <200)
COc1ccc(C(F)(F)F)cc1COC1[C@@H](c2ccccc2)N(C(=O)N(C(C)C)C(C)C)[C@@H](C(=O)O)[C@@H]1C(C)(C)C (mixture of isomers) [Example 7, rac-(2R,3S,5R)-3-tert-butyl-1-[di(propan-2-yl)carbamoyl]-4-{[2-methoxy-5-(trifluoromethyl)phenyl]methoxy}-5-phenylpyrrolidine-2-carboxylic acid] | > 10 | > 10 | + (<150) | + (<100)
CN(C)c1ncc(C(F)(F)F)cc1CO[C@@H]1[C@@H](C(C)(C)C)[C@H](C(=O)O)N(C(=O)C2CCCCC2)[C@@H]1c1ccccc1 (racemic) [Example 12, rac-(2R,3S,4R,5R)-3-tert-butyl-1-(cyclohexanecarbonyl)-4-{[2-(dimethylamino)-5-(trifluoromethyl)pyridin-3-yl]methoxy}-5-phenylpyrrolidine-2-carboxylic acid] | 1 to 10 | 1 to 10 | +++ (≥350) | ++ (≥100 and <200)
COc1ccc(C(F)(F)F)cc1COC1[C@@H](c2ccccc2OC)N(C(=O)C2CCCCC2)[C@@H](C(=O)O)[C@@H]1C(C)(C)C (mixture of isomers) [Example 13, rac-(2R,3S,5R)-3-tert-butyl-1-(cyclohexanecarbonyl)-5-(2-methoxyphenyl)-4-{[2-methoxy-5-(trifluoromethyl)phenyl]methoxy}pyrrolidine-2-carboxylic acid] | 1 to 10 | 1 to 10 | +++ (≥350) | + (<100)
COc1cc(Cl)ccc1COC1[C@@H](c2ccccc2OC)N(C(=O)C2CCCCC2)[C@@H](C(=O)O)[C@@H]1C(C)(C)C (mixture of isomers) [Example 14, rac-(2R,3S,5R)-3-tert-butyl-4-[(4-chloro-2-methoxyphenyl)methoxy]-1-(cyclohexanecarbonyl)-5-(2-methoxyphenyl)pyrrolidine-2-carboxylic acid] | 1 to 10 | 1 to 10 | +++ (≥350) | ++ (≥100 and <200)

Other lines, results leading:

EC50 [1] [µM] | EC50 [2] [µM] | Maximum % activity (with co-corrector) | Maximum % activity (without co-corrector) | SMILES
1 to 10 | 1 to 10 | +++ (≥350) | +++ (≥200) | COc1ccc(C(F)(F)F)cc1CO[C@@H]1[C@@H](C(C)(C)C)[C@H](C(=O)O)N(C(=O)[C@@H]2CCC[C@@H](OC)C2)[C@@H]1c1ccccc1 (mixture of isomers) [Example 29, rac-(2R,3S,4R,5R)-3-(tert-butyl)-4-((2-methoxy-5-(trifluoromethyl)benzyl)oxy)-1-((1R,3R)-3-methoxycyclohexanecarbonyl)-5-phenylpyrrolidine-2-carboxylic acid]
1 to 10 | 1 to 10 | +++ (≥350) | + (<100) | CC(C)(C)[C@@H]1C(OCc2cc(Cl)ccc2Cl)[C@@H](c2ccccc2)N(C(=O)CC2CCCC2)[C@H]1C(=O)O (mixture of isomers) [Example 1, rac-(2R,3S,5R)-3-tert-butyl-1-(cyclopentylacetyl)-4-[(2,5-dichlorophenyl)methoxy]-5-phenylpyrrolidine-2-carboxylic acid]
1 to 10 | 1 to 10 | +++ (≥350) | ++ (≥100 and <200) | CC(C)(C)[C@@H]1C(OCc2cc(Cl)ccc2Cl)[C@@H](c2ccccc2)N(C(=O)C2CCCCC2)[C@H]1C(=O)O (mixture of isomers) [Example 4, rac-(2R,3S,5R)-3-tert-butyl-1-(cyclohexanecarbonyl)-4-[(2,5-dichlorophenyl)methoxy]-5-phenylpyrrolidine-2-carboxylic acid]
1 to 10 | 1 to 10 | +++ (≥350) | ++ (≥100 and <200) | Cc1cc(C(F)(F)F)cc(OC2[C@@H](c3ccccc3)N(C(=O)C3CCCCC3)[C@@H](C(=O)O)[C@@H]2C(C)(C)C)n1 (mixture of isomers) [Example 5, rac-(2R,3S,5R)-3-tert-butyl-1-(cyclohexanecarbonyl)-4-{[6-methyl-4-(trifluoromethyl)pyridin-2-yl]oxy}-5-phenylpyrrolidine-2-carboxylic acid]
1 to 10 | 1 to 10 | +++ (≥350) | + (<100) | COc1cc(OC)nc(OC2[C@@H](c3ccccc3)N(C(=O)N(C(C)C)C(C)C)[C@@H](C(=O)O)[C@@H]2C(C)(C)C)n1 (mixture of isomers) [Example 6, rac-(2R,3S,5R)-3-tert-butyl-4-[(4,6-dimethoxypyrimidin-2-yl)oxy]-1-[di(propan-2-yl)carbamoyl]-5-phenylpyrrolidine-2-carboxylic acid]
1 to 10 | 1 to 10 | +++ (≥350) | +++ (≥200) | COc1ncnc(OC)c1CO[C@@H]1[C@@H](C(C)(C)C)[C@H](C(=O)O)N(C(=O)C2CCCCC2)[C@@H]1c1ccccc1 (racemic) [Example 10, rac-(2R,3S,4R,5R)-3-tert-butyl-1-(cyclohexanecarbonyl)-4-[(4,6-dimethoxypyrimidin-5-yl)methoxy]-5-phenylpyrrolidine-2-carboxylic acid]
1 to 10 | 1 to 10 | +++ (≥350) | ++ (≥100 and <200) | COc1cc(OC)nc(CO[C@@H]2[C@@H](C(C)(C)C)[C@H](C(=O)O)N(C(=O)C3CCCCC3)[C@@H]2c2ccccc2)n1 (racemic) [Example 11, rac-(2R,3S,4R,5R)-3-tert-butyl-1-(cyclohexanecarbonyl)-4-[(4,6-dimethoxypyrimidin-2-yl)methoxy]-5-phenylpyrrolidine-2-carboxylic acid]

Source: patent US10399940B2, “Substituted pyrrolidines and methods of use” (AbbVie S.à.r.l., priority 2016, dated 2019)
